Tests used:
[1] = biological target: c-Raf-1 (Homo sapiens, UniProt P04049); assay: c-Raf-1 kinase activity assay (AlphaScreen, biotin-MEK1 substrate); conditions: 100 μM ATP, 100 nM biotin-MEK1, 45 minutes at room temperature; read-out: Biochemical activity (IC50 μM) c-Raf-1
In short: (§1)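 Each Raf enzyme (0.1 ng) phosphorylates 100 nM biotin-MEK1 in pH 7.0 HEPES with Mg2+/Mn2+, 100 μM ATP final, 45 min at room temperature. Phospho-MEK1/2 antibody with AlphaScreen beads is read after 3 h. IC50 comes from an 8-point dilution series.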

[2] = biological target: B-Raf V600E (Homo sapiens, UniProt P15056, V600E); assay: B-Raf V600E kinase activity assay (AlphaScreen, biotin-MEK1 substrate); conditions: 100 μM ATP, 100 nM biotin-MEK1, 45 minutes at room temperature, read-out: Biochemical activity (IC50 μM) V600E
B-Raf V600E, sequence (P15056 whole entry V600E): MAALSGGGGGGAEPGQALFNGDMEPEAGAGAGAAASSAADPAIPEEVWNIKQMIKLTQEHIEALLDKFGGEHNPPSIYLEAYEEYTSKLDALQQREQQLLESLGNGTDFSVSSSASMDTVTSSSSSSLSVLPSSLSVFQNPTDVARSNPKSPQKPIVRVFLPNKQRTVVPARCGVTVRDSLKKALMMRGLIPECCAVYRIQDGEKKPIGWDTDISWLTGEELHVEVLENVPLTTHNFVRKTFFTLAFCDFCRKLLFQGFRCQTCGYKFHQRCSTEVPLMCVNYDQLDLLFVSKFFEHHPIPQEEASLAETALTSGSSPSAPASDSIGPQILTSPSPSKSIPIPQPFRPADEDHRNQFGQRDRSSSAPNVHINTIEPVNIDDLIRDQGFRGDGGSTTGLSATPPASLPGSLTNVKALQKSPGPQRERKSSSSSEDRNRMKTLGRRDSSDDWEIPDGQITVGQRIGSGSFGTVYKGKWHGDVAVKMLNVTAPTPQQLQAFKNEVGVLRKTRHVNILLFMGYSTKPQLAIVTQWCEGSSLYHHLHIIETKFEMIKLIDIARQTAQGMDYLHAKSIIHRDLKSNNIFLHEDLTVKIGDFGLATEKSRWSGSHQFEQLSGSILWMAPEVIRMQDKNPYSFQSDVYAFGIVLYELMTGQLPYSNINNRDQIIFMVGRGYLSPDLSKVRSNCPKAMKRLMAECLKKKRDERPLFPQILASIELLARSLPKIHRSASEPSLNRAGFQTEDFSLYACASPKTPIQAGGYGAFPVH
In short: as §1

[3] = biological target: B-Raf (Homo sapiens, UniProt P15056); assay: B-Raf kinase activity assay (AlphaScreen, biotin-MEK1 substrate); conditions: 100 μM ATP, 100 nM biotin-MEK1, 45 minutes at room temperature; read-out: Biochemical activity (IC50 μM) B-Raf
B-Raf, sequence (P15056 whole entry): as the sequence (P15056 whole entry V600E) above, with E600V counted along it
In short: as §1

[4] = system: COLO205 colon adenocarcinoma (B-Raf V600E mutation); assay: COLO205 cell growth inhibition (ATPlite luminescence); type: cell-based; conditions: Homo sapiens, COLO 205, 72 h, COLO205 cells, incubated 3 days with compound
Experimental: Compounds are assessed in a variety of cell based assays. For example human cell lines with B-Raf V600E mutation (A375 melanoma, SKMEL3 melanoma, and COLO205 colon adenocarcinoma), as well as tumorigenic cell lines with wild-type B-RAF (SW620 colon adenocarcinoma) or with Ras mutations (SKMEL2 melanoma and IPC298 melanoma). Similar assays may be used to assess additional tumorigenic cell lines with Ras mutations, including, but not limited to, M202, M207, M243, M244, M296, S117, HCT116, HCT15, DLD1, MiaPaCa, A549, NCI-H23, NCI-H460, HOP62, MDA-MB231, Hs-578T, HL60, MOLT-4, and CCRF-CEM.
On day 1, cells are counted, then centrifuged in a conical tube for 5 minutes at 1000 rpm. The supernatant is removed and cells are re-suspended as follows: • SW620 (ATCC catalog #CCL-27): resuspend in Leibovitz's L-15 medium, 2 mM L-glutamine, 10% fetal bovine serum to 6×10^4 cells/mL. • A375 (ATCC catalog #CRL-1619): resuspend in Dulbecco's modified Eagle's medium, 4 mM L-glutamine, 4.5 g/L D-glucose, 10% fetal bovine serum to 6×10^4 cells/mL. • COLO205 (ATCC catalog #CCL-222): resuspend in RPMI 1640, 2 mM L-glutamine, 1.5 g/L sodium bicarbonate, 4.5 g/L D-glucose, 10 mM HEPES, 1.0 mM sodium pyruvate, 10% fetal bovine serum to 6×10^4 cells/mL. • SKMEL2 (ATCC catalog #HTB-68): resuspend in Minimum Eagle essential medium, 2 mM L-glutamine, 1.5 g/L sodium bicarbonate, 0.1 mM non-essential amino acids, 1.0 mM sodium pyruvate, 10% fetal bovine serum to 6×10^4 cells/mL. • SKMEL3 (ATCC catalog #HTB-69): resuspend in McCoy's 5A medium, 1.5 mM L-glutamine, 15% fetal bovine serum to 6×10^4 cells/mL. • IPC298 (DSMZ catalog #ACC 251): resuspend in RPMI 1640, 2 mM L-glutamine, 10% fetal bovine serum to 6×10^4 cells/mL.
The cells are plated, 50 μL in each well of a 96-well dish (Corning 3610) and incubated at 37° C. in 5% CO2 overnight, cells plated to a final concentration of cells as follows:
On day 2, compound at a maximum concentration of 5 mM is serially diluted 1:3 (e.g. 10 μL with 30 μL dimethyl sulfoxide) for a total of 8 point titration with DMSO as a control. A 1 μL aliquot of each dilution point and control is added to 249 μL growth media and 50 μL is added to a well containing cells, providing 10 μM compound at the maximum concentration point. The cells are incubated for 3 days at 37° C. in 5% CO2.
On day 5, ATPlite 1 step Luminescence Assay System (Perkin Elmer #6016739) is brought to room temperature along with the cell cultures. ATPlite is added 25 μL to each well, shake for 2 minutes, and the cells are incubated at room temperature for 10 minutes, then luminescence is read on Safire reader. The measured luminescence correlates directly with cell number, such that the reading as a function of compound concentration is used to determine the IC50 value.
It is understood that the results of these assays may vary as assay conditions are varied. Inhibition levels determined under the conditions described herein represent a relative activity for the compounds tested under the specific conditions employed. The cell based assays are likely to show variability due to the complexity of the system and the sensitivity thereof to any changes in the assay conditions. […] Results for compounds that are tested and show substantially no inhibition below the highest tested concentration are represented as “-” in the tables below. In some instances, the compounds were not tested in all of the assays, or assay results were not valid, as indicated by NA in the tables below.

c-Raf-1, sequence (P04049 whole entry Y340D/Y341D, form open): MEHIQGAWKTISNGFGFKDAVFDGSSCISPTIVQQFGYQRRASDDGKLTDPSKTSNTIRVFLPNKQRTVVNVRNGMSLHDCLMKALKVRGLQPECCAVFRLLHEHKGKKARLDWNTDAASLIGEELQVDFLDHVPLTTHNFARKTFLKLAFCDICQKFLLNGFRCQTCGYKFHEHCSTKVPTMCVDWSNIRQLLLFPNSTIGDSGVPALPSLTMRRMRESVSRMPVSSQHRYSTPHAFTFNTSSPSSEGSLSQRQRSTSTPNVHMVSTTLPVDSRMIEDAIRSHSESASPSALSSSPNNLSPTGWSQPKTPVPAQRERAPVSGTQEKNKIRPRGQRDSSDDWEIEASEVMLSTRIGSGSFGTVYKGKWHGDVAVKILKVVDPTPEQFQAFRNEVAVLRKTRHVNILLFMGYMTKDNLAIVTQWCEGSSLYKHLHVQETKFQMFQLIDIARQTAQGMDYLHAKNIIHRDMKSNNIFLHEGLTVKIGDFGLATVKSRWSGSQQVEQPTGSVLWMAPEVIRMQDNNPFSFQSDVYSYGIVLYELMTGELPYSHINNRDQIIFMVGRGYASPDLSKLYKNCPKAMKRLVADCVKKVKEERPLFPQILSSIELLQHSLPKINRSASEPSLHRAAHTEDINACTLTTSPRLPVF

Row | Compound | IC50 [1] | IC50 [2] | IC50 [3] | IC50 [4]
1 | CCCS(=O)(=O)Nc1ccc(F)c(C(=O)c2c[nH]c3ncc(-c4ccc(Cl)c(C(N)=O)c4)cc23)c1F [P-1700, 2-Chloro-5-{3-[2,6-difluoro-3-(propane-1-sulfonylamino)-benzoyl]-1H-pyrrolo[2,3-b]pyridin-5-yl}-benzamide] | < 0.1 µM | < 0.1 µM | < 0.1 µM | < 1 µM
2 | CCCS(=O)(=O)Nc1ccc(F)c(C(=O)c2c[nH]c3ncc(-c4ccccn4)cc23)c1F [P-1401, Propane-1-sulfonic acid [2,4-difluoro-3-(5-pyridin-2-yl-1H-pyrrolo[2,3-b]pyridine-3-carbonyl)-phenyl]-amide] | < 0.1 µM | < 0.1 µM | < 0.1 µM | > 1 µM
3 | CCCS(=O)(=O)Nc1ccc(F)c(C(=O)c2c[nH]c3ncc(-c4ccc5c(c4)CC(=O)N5)cc23)c1F [P-1703, Propane-1-sulfonic acid {2,4-difluoro-3-[5-(2-oxo-2,3-dihydro-1H-indol-5-yl)-1H-pyrrolo[2,3-b]pyridine-3-carbonyl]-phenyl}-amide] | < 0.1 µM | < 0.1 µM | < 0.1 µM | < 1 µM
4 | CCCS(=O)(=O)Nc1ccc(F)c(C(=O)c2c[nH]c3ncc(-c4cccc5[nH]ncc45)cc23)c1F [P-0009, Propane-1-sulfonic acid {2,4-difluoro-3-[5-(1H-indazol-4-yl)-1H-pyrrolo[2,3-b]pyridine-3-carbonyl]-phenyl}-amide] | < 1 µM | < 1 µM | < 1 µM | < 1 µM
5 | CCCS(=O)(=O)Nc1ccc(F)c(C(=O)c2c[nH]c3ncc(-c4cnc(-n5cccn5)cn4)cc23)c1F [P-1601, Propane-1-sulfonic acid {2,4-difluoro-3-[5-(5-pyrazol-1-yl-pyrazin-2-yl)-1H-pyrrolo[2,3-b]pyridine-3-carbonyl]-phenyl}-amide] | < 0.1 µM | < 0.1 µM | < 0.1 µM | < 1 µM
6 | CCCS(=O)(=O)Nc1ccc(F)c(C(=O)c2c[nH]c3ncc(-c4ccc5nccnc5c4)cc23)c1F [P-0014, Propane-1-sulfonic acid [2,4-difluoro-3-(5-quinoxalin-6-yl-1H-pyrrolo[2,3-b]pyridine-3-carbonyl)-phenyl]-amide] | < 0.1 µM | < 0.1 µM | < 0.1 µM | < 1 µM
7 | CCCS(=O)(=O)Nc1ccc(F)c(C(=O)c2c[nH]c3ncc(-c4csc(-n5ccnc5)n4)cc23)c1F [P-1106, Propane-1-sulfonic acid {2,4-difluoro-3-[5-(2-imidazol-1-yl-thiazol-4-yl)-1H-pyrrolo[2,3-b]pyridine-3-carbonyl]-phenyl}-amide] | < 0.1 µM | < 0.1 µM | < 0.1 µM | > 1 µM
8 | CCCS(=O)(=O)Nc1ccc(F)c(C(=O)c2c[nH]c3ncc(-c4ccc5c(c4)CNC5=O)cc23)c1F [P-1701, Propane-1-sulfonic acid {2,4-difluoro-3-[5-(1-oxo-2,3-dihydro-1H-isoindol-5-yl)-1H-pyrrolo[2,3-b]pyridine-3-carbonyl]-phenyl}-amide] | < 0.1 µM | < 0.1 µM | < 0.1 µM | < 1 µM
9 | CCCS(=O)(=O)Nc1ccc(F)c(C(=O)c2c[nH]c3ncc(-c4csc(-n5cnc(C)c5)n4)cc23)c1F [P-1100, Propane-1-sulfonic acid (2,4-difluoro-3-{5-[2-(4-methyl-imidazol-1-yl)-thiazol-4-yl]-1H-pyrrolo[2,3-b]pyridine-3-carbonyl}-phenyl)-amide] | < 0.1 µM | < 0.1 µM | < 0.1 µM | < 1 µM
10 | CCCS(=O)(=O)Nc1ccc(F)c(C(=O)c2c[nH]c3ncc(-c4cnn(-c5ncccn5)c4)cc23)c1F [P-1005, Propane-1-sulfonic acid {2,4-difluoro-3-[5-(1-pyrimidin-2-yl-1H-pyrazol-4-yl)-1H-pyrrolo[2,3-b]pyridine-3-carbonyl]-phenyl}-amide] | < 0.1 µM | < 0.1 µM | < 0.1 µM | < 1 µM
11 | CCCS(=O)(=O)Nc1ccc(F)c(C(=O)c2c[nH]c3ncc(C(=O)Nc4cccnc4)cc23)c1F [P-1801, 3-[2,6-Difluoro-3-(propane-1-sulfonylamino)-benzoyl]-1H-pyrrolo[2,3-b]pyridine-5-carboxylic acid pyridin-3-ylamide] | < 0.1 µM | < 0.1 µM | < 0.1 µM | > 1 µM

Now from value to compound:

Row | IC50 [1] | IC50 [2] | IC50 [3] | IC50 [4] | Compound
12 | < 0.1 µM | < 0.1 µM | < 0.1 µM | < 1 µM | CCCS(=O)(=O)Nc1ccc(F)c(C(=O)c2c[nH]c3ncc(-c4ccc(-c5cc[nH]n5)s4)cc23)c1F [P-1201, Propane-1-sulfonic acid (2,4-difluoro-3-{5-[5-(1H-pyrazol-3-yl)-thiophen-2-yl]-1H-pyrrolo[2,3-b]pyridine-3-carbonyl}-phenyl)-amide]
13 | < 0.1 µM | < 0.1 µM | < 0.1 µM | > 1 µM | CCCS(=O)(=O)Nc1ccc(F)c(C(=O)c2c[nH]c3ncc(-c4csc(N(C)C)n4)cc23)c1F [P-1102, Propane-1-sulfonic acid {3-[5-(2-dimethylamino-thiazol-4-yl)-1H-pyrrolo[2,3-b]pyridine-3-carbonyl]-2,4-difluoro-phenyl}-amide]
14 | < 0.1 µM | < 0.1 µM | < 0.1 µM | > 1 µM | CCCS(=O)(=O)Nc1ccc(F)c(C(=O)c2c[nH]c3ncc(-c4cnn(-c5nnn[nH]5)c4)cc23)c1F [P-1008, Propane-1-sulfonic acid (2,4-difluoro-3-{5-[1-(1H-tetrazol-5-yl)-1H-pyrazol-4-yl]-1H-pyrrolo[2,3-b]pyridine-3-carbonyl}-phenyl)-amide]
15 | < 0.1 µM | < 0.1 µM | < 0.1 µM | < 1 µM | CCCS(=O)(=O)Nc1ccc(F)c(C(=O)c2c[nH]c3ncc(-c4ccc5c(c4)C(=O)NC5)cc23)c1F [P-1702, Propane-1-sulfonic acid {2,4-difluoro-3-[5-(3-oxo-2,3-dihydro-1H-isoindol-5-yl)-1H-pyrrolo[2,3-b]pyridine-3-carbonyl]-phenyl}-amide]
16 | < 0.1 µM | < 0.1 µM | < 0.1 µM | < 1 µM | CCCS(=O)(=O)Nc1ccc(F)c(C(=O)c2c[nH]c3ncc(-c4cnc(-n5ccnc5)cn4)cc23)c1F [P-1602, Propane-1-sulfonic acid {2,4-difluoro-3-[5-(5-imidazol-1-yl-pyrazin-2-yl)-1H-pyrrolo[2,3-b]pyridine-3-carbonyl]-phenyl}-amide]
17 | < 0.1 µM | < 0.1 µM | < 0.1 µM | > 1 µM | CCCS(=O)(=O)Nc1ccc(F)c(C(=O)c2c[nH]c3ncc(-c4ccc(-c5cccnc5)s4)cc23)c1F [P-1200, Propane-1-sulfonic acid {2,4-difluoro-3-[5-(5-pyridin-3-yl-thiophen-2-yl)-1H-pyrrolo[2,3-b]pyridine-3-carbonyl]-phenyl}-amide]
